Experimental data published in US20230257374A1, “NOVEL KRAS G12C PROTEIN INHIBITOR, PREPARATION METHOD THEREFOR, AND USE THEREOF” (INNOVENT BIOLOGICS (SUZHOU) CO., LTD., priority 2019, published 2023).

Columns and labels:
in vitro [1] = conditions: human, Caco-2, pH 7.4
Method: Drug penetration test: the Transwell culture plate was retrieved from the incubator. […] All samples were prepared in double parallel. The integrity of the cell monolayer membrane after 2 hours of incubation was assessed using leakage of fluorescein; fluorescein stock solution was diluted with HBSS (25 mM HEPES, pH 7.4) to a final concentration of 100 μM. 100 μL of fluorescein solution was added to each well of the upper Transwell plate and 300 μL of HBSS (25 mM HEPES, pH 7.4) was added to each well of the lower receiving plate; after incubation at 37° C. for 30 min, 80 μL of the solution was pipetted from the upper and lower layers of each well to a new 96-well plate.
The apparent permeability coefficients (Papp, unit: cm/s) of the compounds in Caco-2 cells were calculated from the specific concentrations at the acceptor and donor ends, and the specific calculation formula is as follows: […]
where VA represents the volume of the acceptor end solution (0.3 mL for Ap→Bl, 0.1 mL for Bl→Ap); Area represents the area of the Transwell-96 well plate (0.143 cm^2); time represents the incubation time (unit: s); [drug]acceptor represents the drug concentration (ratio of peak area to internal standard area) at the acceptor end; [drug]initial, donor represents the drug concentration at the donor end (ratio of peak area to internal standard area).
The efflux ratio was calculated as follows: […]
where Papp (B-A) represents the apparent permeability coefficient from base end to top end; Papp (A-B) represents the apparent permeability coefficient from top end to base end.

in vitro [2] = conditions: microsomes, pH 7.4
Method: To examine the in vitro metabolic stability of the test compounds in liver microsomes of different species, representative compounds were selected, and their stability was evaluated by measuring the concentration of the test compounds in the incubation system using LC/MS/MS and calculating their intrinsic clearance in the microsome system.
The method is specifically as follows: each compound was first dissolved in DMSO to prepare a 200 μM working solution and added to the system solution at the time of testing to form a solution with a final concentration of 1 μM.
The microsomes were stored in a −80° C. freezer.
Preparation of incubation system: an incubation system was prepared as described in the table below.
25 μL, of NADPH or phosphate buffered saline was transferred to the incubation system described above, and 2 μL, of 200 μM of the test compound or verapamil was added. The sample with NADPH added was prepared in duplicate; the NADPH negative sample was prepared in single parallel. 30 μL, of suspension was taken at 0.5, 5, 15, 30 and 60 minutes. The reaction system was terminated by adding 180 μL, of acetonitrile containing an internal standard and vortexed for 10 min. […] 100 μL, of the supernatant was transferred to a feeding plate, and 100 μL, of purified water was added. The mixture was well mixed for UPLC-MS/MS analysis.
The results based on the data were obtained by calculation according to the peak area ratio, and the peak area was detected through an extracted ion chromatogram.
The slope value (k) was determined by linear fitting of the natural logarithm of drug elimination percentage over time.

Papp A→B at 2 h, 10 μM (in vitro [1])	Papp B→A at 2 h, 10 μM (in vitro [1])	half-life at 1 μM (in vitro [2]; ICR (CD-1), mouse)	microsomal CLint at 1 μM (in vitro [2]; ICR (CD-1), mouse)	half-life at 1 μM (in vitro [2]; human)	microsomal CLint at 1 μM (in vitro [2]; human)	efflux ratio at 2 h, 10 μM (in vitro [1])	SMILES
0.6 ×10⁻⁶ cm/s	27.4 ×10⁻⁶ cm/s						C=CC(=O)N1CCN(c2nc(=O)n(-c3c(C)ccnc3C(C)C)c3nc(-c4c(O)cccc4F)c(F)cc23)[C@@H](C)C1 [AMG510]
		12.3 min	113 µL/min/mg	19.3 min	72 µL/min/mg		[2H]C([2H])([2H])N1CCC[C@H]1COc1nc2c(c(N3CCN(C(=O)C(=C)F)[C@@H](CC#N)C3)n1)CCN(c1cccc3cccc(Cl)c13)C2 [Compound 18, 2-((S)-4-(7-(8-chloronaphthalen-1-yl)-2-(((S)-1-(methyl-d3)pyrrolidin-2-yl)methoxy)-5,6,7,8-tetrahydropyrido[3,4-d]pyrimidin-4-yl)-1-(2-fluoroacryloyl)piperazin-2-yl)acetonitrile]
0.25 ×10⁻⁶ cm/s	16.4 ×10⁻⁶ cm/s					65.2	C[C@H]1O[C@@H](O[C@H]2[C@@H](O)C[C@H](O[C@H]3[C@@H](O)C[C@H](O[C@H]4CC[C@@]5(C)[C@H](CC[C@@H]6[C@@H]5C[C@@H](O)[C@]5(C)[C@@H](C7=CC(=O)OC7)CC[C@]65O)C4)O[C@@H]3C)O[C@@H]2C)C[C@H](O)[C@@H]1O [Digoxin]
		10 min	139 µL/min/mg	19.8 min	70.2 µL/min/mg		C=C(F)C(=O)N1CCN(c2nc(OC[C@@H]3CCCN3C)nc3c2CCN(c2cccc4cccc(Cl)c24)C3)C[C@@H]1CC#N [MRTX849, reference compound]
22.6 ×10⁻⁶ cm/s	19.5 ×10⁻⁶ cm/s					0.86	COCCc1ccc(OCC(O)CNC(C)C)cc1 (stereo not shown) [Metoprolol]
